From ChEMBL document CHEMBL5303304, “EUbOPEN Chemogenomics Library - IncuCyte” (2023) come the findings set out here.

Structures are written as SMILES.

What all share (assay type): toxicity, cell-based
For one data set, the system named is U2OS. Briefly: Incucyte cell viability with U2OS. Conditions: human, 10 µM, compound concentration 10 uM.
The subject of another data set is Fibroblast. Briefly: Incucyte cell viability with human fibroblast. Conditions: 10 µM, compound concentration 10 uM.
A further data set relates to HEK-293T. Briefly: Incucyte cell viability with HEK293T. Conditions: human, 10 µM, compound concentration 10 uM.
Also: unitless GR value; below 1 slowed growth and below 0 cell loss.

As to `Br.CO[C@H]1CC=C2CCN3CCC4=C(CC(=O)OC4)[C@]23C1`, the “Growth Rate” value is on record as 0.39 in the data set with U2OS (6 h, replicate number 1); 0.78 in the data set on U2OS (6 h, replicate number 2); 0.77 in the data set on U2OS (12 h, replicate number 2); 0.87 in the data set on U2OS (18 h, replicate number 2); 1 in the data set with U2OS (24 h, replicate number 2); 0.93 in the data set with Fibroblast (0 h, replicate number 1). Further, the “Growth Rate” value in the data set on Fibroblast (0 h, replicate number 2) is recorded as 0.3; in the data set with Fibroblast (6 h, replicate number 1), -1; with Fibroblast (6 h, replicate number 2) it was 0.8; in the data set with Fibroblast (12 h, replicate number 2) it was 0.64; with Fibroblast (18 h, replicate number 2), 0.7; in the data set on Fibroblast (24 h, replicate number 2), 0.72. For the same compound, the “Growth Rate” value in the data set on HEK-293T (0 h, replicate number 2) came out at 0.77; in the data set on HEK-293T (6 h, replicate number 1), 0.59.

In the case of `COc1ncc2cc(C(=O)Nc3cc(C(=O)NCc4cccc(Cl)c4)ccc3Cl)c(=O)[nH]c2n1`, the “Growth Rate” value with U2OS (6 h, replicate number 2) is recorded as 0.67; with U2OS (18 h, replicate number 2), 0.97; with U2OS (24 h, replicate number 2), 0.97; in the data set on Fibroblast (0 h, replicate number 2), 0.35; in the data set on Fibroblast (6 h, replicate number 2), -0.4; in the data set with Fibroblast (12 h, replicate number 1), -0.98. Moreover, the “Growth Rate” value in the data set with Fibroblast (12 h, replicate number 2) is 0.79; with Fibroblast (18 h, replicate number 1), -0.46; in the data set with Fibroblast (24 h, replicate number 1), 0.44; in the data set on Fibroblast (24 h, replicate number 2), 0.92; in the data set with HEK-293T (6 h, replicate number 1), 0.22; with HEK-293T (6 h, replicate number 2), -0.03. Moreover, the “Growth Rate” value in the data set with HEK-293T (12 h, replicate number 1) is given as 0.64; with HEK-293T (12 h, replicate number 2), 0.55; in the data set with HEK-293T (18 h, replicate number 1), 0.51; with HEK-293T (18 h, replicate number 2), 0.64; in the data set with HEK-293T (24 h, replicate number 1), 0.67; in the data set on HEK-293T (24 h, replicate number 2), 0.79.

For the compound `CCS(=O)(=O)Nc1cccc(Oc2cncc(Nc3ccc(I)cc3F)c2C(N)=O)c1`, the “Growth Rate” value in the data set on U2OS (6 h, replicate number 1) is 0.71; in the data set with U2OS (6 h, replicate number 2), 0.62; in the data set with U2OS (12 h, replicate number 2), 0.76; in the data set with U2OS (18 h, replicate number 1), 0.92; in the data set on U2OS (24 h, replicate number 1), 0.84; in the data set on U2OS (24 h, replicate number 2), 0.98. Further, the “Growth Rate” value with Fibroblast (6 h, replicate number 1) was 0.99; with HEK-293T (0 h, replicate number 1) it was 0.82; in the data set with HEK-293T (6 h, replicate number 1) it was 0.77; with HEK-293T (12 h, replicate number 1), 0.82; in the data set with HEK-293T (12 h, replicate number 2), 0.71; with HEK-293T (18 h, replicate number 1), 0.77. For the same compound, the “Growth Rate” value with HEK-293T (18 h, replicate number 2) stood at 0.58; in the data set on HEK-293T (24 h, replicate number 1) it was 0.74; in the data set with HEK-293T (24 h, replicate number 2), 0.69.

Regarding `CCOc1cc(CC(=O)N[C@@H](CC(C)C)c2ccccc2N2CCCCC2)ccc1C(=O)O` [REPAGLINIDE], the “Growth Rate” value with U2OS (12 h, replicate number 2) amounted to 0.94; with U2OS (18 h, replicate number 2) it was 0.96; with U2OS (24 h, replicate number 1), 0.99; with Fibroblast (12 h, replicate number 2) it was 0.38; in the data set on Fibroblast (18 h, replicate number 2), 0.61; with Fibroblast (24 h, replicate number 2), 0.86. The “Growth Rate” value is 0.91 in the data set with HEK-293T (0 h, replicate number 1) and 0.8 with HEK-293T (0 h, replicate number 2).

With `CC(C)c1ccc(CC(=O)N[C@H](C)c2ccc(OCC(F)(F)F)cn2)cc1` [SUVECALTAMIDE], the “Growth Rate” value is 0.67 with U2OS (0 h, replicate number 2); -0.32 in the data set with U2OS (6 h, replicate number 1); 0.56 with U2OS (6 h, replicate number 2); 0.59 with U2OS (12 h, replicate number 1); 0.89 with U2OS (12 h, replicate number 2); 0.76 with U2OS (18 h, replicate number 1). For the same compound, the “Growth Rate” value in the data set with U2OS (18 h, replicate number 2) is given as 0.86; with U2OS (24 h, replicate number 1), 0.78; with U2OS (24 h, replicate number 2), 0.9; in the data set with Fibroblast (0 h, replicate number 1), -0.55; with Fibroblast (6 h, replicate number 2), -1; with Fibroblast (12 h, replicate number 2), 0.94. The “Growth Rate” value in the data set with Fibroblast (18 h, replicate number 1) is reported as 0.11; in the data set with Fibroblast (18 h, replicate number 2), 0.84; in the data set with Fibroblast (24 h, replicate number 2), 0.74; in the data set on HEK-293T (0 h, replicate number 2) it was 0.85; with HEK-293T (6 h, replicate number 1), 0.16; in the data set on HEK-293T (12 h, replicate number 2) it was 0.87. Moreover, the “Growth Rate” value in the data set with HEK-293T (18 h, replicate number 2) is reported as 0.95; with HEK-293T (24 h, replicate number 2), 0.8.

As for `CCCNc1ccc2ncc(-c3ccncc3)n2n1`, the “Growth Rate” value in the data set on U2OS (0 h, replicate number 1) was -1; in the data set with U2OS (6 h, replicate number 1) it was 0.96; in the data set with U2OS (12 h, replicate number 1), 0.48; with U2OS (18 h, replicate number 1) it was 0.14; in the data set with U2OS (18 h, replicate number 2), 0.66; in the data set on U2OS (24 h, replicate number 1), 0.15. In addition, the “Growth Rate” value in the data set with U2OS (24 h, replicate number 2) is 0.45; with Fibroblast (0 h, replicate number 2), 0.59; with Fibroblast (6 h, replicate number 1), 0.14; with Fibroblast (6 h, replicate number 2) it was 0.27; in the data set on Fibroblast (12 h, replicate number 1), 0.2; with Fibroblast (12 h, replicate number 2), 0.09. Further, the “Growth Rate” value in the data set on Fibroblast (18 h, replicate number 1) is reported as 0.11; in the data set with Fibroblast (18 h, replicate number 2), 0.04; in the data set on Fibroblast (24 h, replicate number 1), 0.13; with Fibroblast (24 h, replicate number 2), 0.09; in the data set with HEK-293T (6 h, replicate number 1) it was -0.19; with HEK-293T (6 h, replicate number 2) it was -0.3. In addition, the “Growth Rate” value is listed as -0.26 with HEK-293T (12 h, replicate number 1); -0.13 with HEK-293T (12 h, replicate number 2); -0.11 in the data set with HEK-293T (18 h, replicate number 1); 0.02 in the data set with HEK-293T (24 h, replicate number 1); -0.01 in the data set on HEK-293T (24 h, replicate number 2).

As for `CCNc1ccc(-c2nn(-c3ccccc3C)c3c2C(C)Cc2nc(NC(=O)OC)sc2-3)cn1.O=C(O)C(F)(F)F` (stereo not given), the “Growth Rate” value is on record as -0.28 in the data set with U2OS (0 h, replicate number 1); 0.5 in the data set with U2OS (6 h, replicate number 1); 0.13 in the data set with U2OS (6 h, replicate number 2); 0.39 in the data set with U2OS (12 h, replicate number 1); 0.24 in the data set on U2OS (12 h, replicate number 2); 0.27 in the data set with U2OS (18 h, replicate number 1). The “Growth Rate” value in the data set with U2OS (18 h, replicate number 2) is reported as 0.25; in the data set with U2OS (24 h, replicate number 1), -0.06; in the data set with U2OS (24 h, replicate number 2) it was 0.07; in the data set with Fibroblast (6 h, replicate number 1), -0.81; in the data set on Fibroblast (6 h, replicate number 2) it was -0.7; in the data set with Fibroblast (12 h, replicate number 1), -0.55. Further, the “Growth Rate” value in the data set on Fibroblast (12 h, replicate number 2) is -0.37; in the data set on Fibroblast (18 h, replicate number 1), -0.28; with Fibroblast (18 h, replicate number 2), -0.19; in the data set on Fibroblast (24 h, replicate number 1), -0.11; in the data set with Fibroblast (24 h, replicate number 2), -0.06; in the data set with HEK-293T (0 h, replicate number 2) it was -0.93. The “Growth Rate” value is reported as -0.42 with HEK-293T (6 h, replicate number 1); 0.14 in the data set with HEK-293T (6 h, replicate number 2); -0.41 in the data set on HEK-293T (12 h, replicate number 1); -0.12 in the data set with HEK-293T (12 h, replicate number 2); -0.23 in the data set with HEK-293T (18 h, replicate number 1); 0.03 in the data set on HEK-293T (18 h, replicate number 2). Also, the “Growth Rate” value in the data set with HEK-293T (24 h, replicate number 1) is reported as -0.1; in the data set with HEK-293T (24 h, replicate number 2) it was -0.01.

Consider `Cc1c(CN2CCC3(CC2)CN(c2ncnc4sc(CC(F)(F)F)cc24)C3)ccc2c1cc(C#N)n2CC(N)=O`, for which the “Growth Rate” value is recorded as 0.3 in the data set on U2OS (0 h, replicate number 2); 1 in the data set with U2OS (6 h, replicate number 1); 0.94 in the data set on U2OS (24 h, replicate number 1); -1 in the data set on Fibroblast (0 h, replicate number 1); -0.45 in the data set on Fibroblast (6 h, replicate number 1); -0.88 with Fibroblast (6 h, replicate number 2). Further, the “Growth Rate” value is given as -0.4 in the data set with Fibroblast (12 h, replicate number 1); -0.34 with Fibroblast (12 h, replicate number 2); -0.16 in the data set with Fibroblast (18 h, replicate number 1); -0.22 in the data set with Fibroblast (18 h, replicate number 2); -0.05 in the data set with Fibroblast (24 h, replicate number 1); 0.09 with Fibroblast (24 h, replicate number 2). In addition, the “Growth Rate” value with HEK-293T (6 h, replicate number 1) is on record as 0.58; in the data set on HEK-293T (6 h, replicate number 2), -0.05; with HEK-293T (12 h, replicate number 1), 0.59; in the data set with HEK-293T (12 h, replicate number 2), 0.34; in the data set on HEK-293T (18 h, replicate number 1), 0.63; in the data set on HEK-293T (18 h, replicate number 2), 0.44. Also, the “Growth Rate” value in the data set with HEK-293T (24 h, replicate number 1) came out at 0.69; with HEK-293T (24 h, replicate number 2), 0.47.

Regarding `NS(=O)(=O)c1cncc(-c2nc(NCc3ccccn3)c3c(-c4ccccc4)cccc3n2)c1` [BMS-919373], the “Growth Rate” value with U2OS (0 h, replicate number 1) is 0.72; in the data set with U2OS (0 h, replicate number 2), -0.7; in the data set with U2OS (12 h, replicate number 1), 0.98; in the data set on U2OS (12 h, replicate number 2), 0.71; in the data set with U2OS (18 h, replicate number 2), 0.59; with U2OS (24 h, replicate number 2) it was 0.63. In addition, the “Growth Rate” value in the data set with Fibroblast (0 h, replicate number 2) is -0.92; in the data set with Fibroblast (12 h, replicate number 1), -1; with Fibroblast (18 h, replicate number 1), 0.34; in the data set with HEK-293T (6 h, replicate number 1) it was 0.01; with HEK-293T (6 h, replicate number 2), 0.33; in the data set on HEK-293T (12 h, replicate number 1), 0.64. The “Growth Rate” value in the data set with HEK-293T (12 h, replicate number 2) came to 0.24; in the data set on HEK-293T (18 h, replicate number 1), 0.69; in the data set on HEK-293T (18 h, replicate number 2) it was 0.22; in the data set with HEK-293T (24 h, replicate number 1), 1; in the data set with HEK-293T (24 h, replicate number 2), 0.26.

As for `O=C(O)Cc1ccc(CCNS(=O)(=O)c2ccc(Cl)cc2)cc1` [DALTROBAN], the “Growth Rate” value is reported as 0.96 in the data set on U2OS (24 h, replicate number 1); -0.53 with Fibroblast (0 h, replicate number 2); 0.99 in the data set with Fibroblast (24 h, replicate number 1); 0.23 in the data set with HEK-293T (6 h, replicate number 1); 0.8 in the data set on HEK-293T (6 h, replicate number 2); 0.38 in the data set with HEK-293T (12 h, replicate number 1). Also, the “Growth Rate” value with HEK-293T (12 h, replicate number 2) is 0.95; in the data set on HEK-293T (18 h, replicate number 1), 0.67; in the data set with HEK-293T (24 h, replicate number 1), 0.72.
